Where two headings read alike, the source gives them in different places.
Tested on: A549 human lung cancer cells
Conditions: for decreased clonogenic survival at 18 MV compared to 6 MV: Example 2 conclusion; for more cell killing at 18 MV vs 6 MV: Example 3 conclusion; for cell survival decreased using 18 MV photons compared to 6 MV photons, average of 3 experiments: FIG. 2 and FIG. 4, 2 hours before irradiation with 2 Gy, 100 μM sodium phosphotungstate, 4 μg/ml cisplatin, 12 μg/ml carboplatin; for increased cell killing at 18 MV compared to 6 MV, on average: cisplatin 4 μg/ml, carboplatin 12 μg/ml (FIG. 4)
Experimental: Detailed Methods: The human lung cancer cell line A549 was maintained in tissue culture using standard techniques. A 70% confluent T25 tissue culture flask of A549 in exponential growth phase was trypsinized with 2 mL of 0.05% trypsin solution and deactivated with 3 mL DMEM to produce a 5 mL single cell-suspension. One milliliter of this cell solution was added to 10 mL of DMEM and vortexed to produce a homogenous diluted single cell suspension. Seven 6-well tissue culture plates were prepared with 3 mL of DMEM per well. […] These plates were incubated at 37° C. for 24 hours to allow the cells to settle and the tissue culture wells. The media was then removed from each plate and replaced with: DMEM in 3 plates as non-metal controls (250 cells per well), 100 μM sodium phosphotungstate hydrate DMEM in 2 plates (250 cells per well), 1 mM sodium tungstate dihydrate DMEM in 2 plates (250 cells per well), and 4 μg/mL cisplatin DMEM in 2 plates (1000 cells per well). The media with or without metal compounds was left in the wells to incubate for 1-2 hours prior to irradiation. Six plates were irradiated using a linear accelerator (Varian Trilogy; Varian Corp., Palo Alto, Calif.): one plate each of the DMEM, sodium phosphotungstate hydrate, sodium tungstate dihydrate, and cisplatin were given 209 MU of 6 MV X-rays (2 Gy) and the remaining plates of DMEM, sodium phosphotungstate hydrate, sodium tungstate dihydrate, and cisplatin were irradiated with 239 MU of 18 MV X-rays (2 Gy). The remaining seventh plate was not irradiated and used to calculate plating efficiency of A549. The seven plates then had all media replaced with normal DMEM immediately following irradiation and were incubated for 10 days. When A549 colonies were seen to be equal to or greater than 50 cells by microscopy, the seven plates were stained with crystal violet and counted. The same experiment above was conducted for A549 cells in DMEM media alone with administration of sodium phosphotungstate hydrate after irradiation. Two identical plates were prepared as described above and these were irradiated at 6 or 18 MV in DMEM. The media was removed after irradiation and replaced with 100 μM sodium phosphotungstate hydrate media for one hour before again being replaced with DMEM and incubated for 10 days.
A549 lung cancer cells were used to create nine 6-well plates under standard methods. The media was then removed from each plate and replaced with: DMEM in 3 plates as non-metal controls (250 cells per well), 100 μM sodium phosphotungstate hydrate DMEM in 2 plates (250 cells per well), 12 μg/ml carboplatin DMEM in 2 plates (1000 cells per well), and 4 μg/ml cisplatin DMEM in 2 plates (1000 cells per well) and incubated for 2-4 hours prior to irradiation. Eight plates were irradiated on a linear accelerator: one plate each of the DMEM, tungsten, carboplatin, and cisplatin was given 2 Gy of 6 MV X-rays and one of each was irradiated with 2 Gy of 18 MV X-rays. The remaining plate was not irradiated and used to calculate plating efficiency of A549. The nine plates were incubated for 10 days, stained with crystal violet, and colonies were counted.
In vitro studies were conducted with the A549 cell line, a human lung adenocarcinoma cultured from the tumor of a person by Giard in 1972. Clonogenic survival studies were done without irradiation or metal compound to measure plating efficiency. Cells were then exposed to 100 μM tungsten compound for 4 hours and seeded into 6 well plates. […] 4 identical plates of cells were then created, 2 containing 100 μM tungsten metal and 2 without metal.

[1] = Example 2, 2 Gy of 6 MV X-rays, compound in media 1-2 hours prior to irradiation (100 μM sodium phosphotungstate hydrate, 1 mM sodium tungstate dihydrate, 4 μg/mL cisplatin)
[2] = Example 2, 2 Gy of 18 MV X-rays, compound in media 1-2 hours prior to irradiation (100 μM sodium phosphotungstate hydrate, 1 mM sodium tungstate dihydrate, 4 μg/mL cisplatin)
[3] = Example 3, 2 Gy of 6 MV X-rays, incubated 2-4 hours prior to irradiation (100 μM tungsten, 4 μg/ml cisplatin, 12 μg/ml carboplatin)
[4] = Example 3, 2 Gy of 18 MV X-rays, incubated 2-4 hours prior to irradiation (100 μM tungsten, 4 μg/ml cisplatin, 12 μg/ml carboplatin)

| Compound | average colonies [1] | survival [1] | average colonies [2] | survival [2] | more cell killing compared to 6 MV (Example 2, 18 MV vs 6 MV, 2 Gy, 1 mM) | decreased clonogenic survival at 18 MV compared to 6 MV (2 Gy) | survival after drug administration without irradiation (100 μM for 4 hours, no irradiation) | cell killing, plates exposed to tungsten after irradiation (Example 2, 100 μM for one hour after irradiation, at either 6 or 18 MV) | 18 MV result compared to 6 MV, in words (Example 2, 18 MV vs 6 MV, 2 Gy) | colonies/well [3] | survival [3] | colonies/well [4] | survival [4] | more cell killing at 18 MV vs 6 MV (2 Gy) | more cell killing compared to 6 MV with or without metal and 18 MV without metal (Example 4, 100 μM, 2 Gy of 18 MV photons) | cell survival decreased using 18 MV photons compared to 6 MV photons, average of 3 experiments | increased cell killing at 18 MV compared to 6 MV, on average (Example 4) |
| --- | --- | --- | --- | --- | --- | --- | --- | --- | --- | --- | --- | --- | --- | --- | --- | --- | --- |
| O.O.[Na+].[Na+].[O]=[W](=[O])([O-])[O-] [sodium tungstate dihydrate] | 70 colonies | 68% | 21 colonies | 20% | approximately 70% | ~70% | – | – | – | – | – | – | – | – | – | – | – |
| sodium phosphotungstate hydrate | 68 colonies | 66% | 35 colonies | 34% | – | approximately 50% | greater than 95% | approximately 65% | double cell kill | 68 colonies/well | 66% | 35 colonies/well | 34% | approximately 50% | approximately 50% | 48% | – |
| N.N.[Cl][Pt][Cl] [cisplatin, reference compound] | 54 colonies | 13% | 29 colonies | 7% | – | approximately 50% | – | – | half of that at 6 MV | 54 colonies/well | 13% | 29 colonies/well | 7% | 37% | – | approximately 37% | approximately 37% |
| N.N.O=C([O-])C1(C(=O)[O-])CCC1.[Pt+2] [carboplatin, reference compound] | – | – | – | – | – | – | – | – | – | 64 colonies/well | 16% | 40 colonies/well | 10% | 37% | – | approximately 37% | approximately 37% |
